Laboratory results published in the supplement of paper PMC10011410.
± gives the standard deviation of the averaged measurements.

What was measured:
U-2 OS [1] = assay: total intracellular glutathione (GSH + GSSG) relative to DMSO (% of control); higher = more glutathione; conditions: 24 h
Summary of the method: (§1)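 Luminescence readouts gave total glutathione and GSSG (GSH/GSSG-Glo) or viability (CellTiter-Glo), each on its own plates. Cells (U-2 OS, 750 per well, white low-volume 384-well plates) were dosed by pin tool 24 h after seeding, mostly at 20, 10 and 5 μM in 0.4% DMSO, and kept for 24 h at 37 °C. Results were corrected for background and row/column effects and expressed against vehicle or as a GSH:GSSG ratio. Five replicate plates were used.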

U-2 OS [2] = assay: intracellular GSH:GSSG ratio (calculated); higher = more reduced glutathione pool; conditions: 24 h
Experimental: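 Intracellular glutathione in U-2 OS cells after 24 h compound treatment at 5, 10 and 20 uM (some at 40 and 80 uM). Total glutathione and GSSG were measured with the GSH/GSSG-Glo kit, and the GSH:GSSG ratio was calculated. Mean of five technical replicate plates.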

U-2 OS [3] = assay: AUC of culture confluence over time (live-cell imaging) (AUC (confluence % x time)); higher = more confluent culture (less growth inhibition)
Summary of the method: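 Each value is the area under a curve of confluence over time for U-2 OS cells. The cells, in F-12K medium with 10% FBS, were plated at 750 per well in 384-well plates and dosed by pin tool 24 h later, most compounds at 20, 10 and 5 μM with 0.2% DMSO. They were held at 37 °C and imaged every 4 h for up to 60 h.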

U-2 OS [4] = assay: relative cell count vs DMSO (cell painting) (fraction of DMSO control); higher = more cells remaining (less cytotoxic); conditions: 24 h
Summary of the method: (§2)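 Cell painting used U-2 OS cells at about 1,500 per well in 384-well plates, treated by pin tool for 24 h at 37 °C, usually at six 2-fold concentrations from 20 μM to 625 nM. Cells were stained with MitoTracker, concanavalin A, phalloidin, wheat germ agglutinin, Hoechst and SYTO 14 and imaged on an Opera Phenix. Features were extracted with CellProfiler and normalized to DMSO cells on the same plate. The activity score is the Mahalanobis distance from DMSO wells; cell count is relative to DMSO wells. Values are means of four replicate plates.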

U-2 OS [5] = assay: cell painting activity score (Mahalanobis distance from DMSO wells); higher = stronger morphological phenotype; conditions: 24 h
Summary of the method: as §2

U-2 OS [6] = assay: cell viability (CellTiter-Glo) relative to DMSO (% of control); higher = more viable; conditions: 24 h
Summary of the method: as §1

Compound	total intracellular glutathione (U-2 OS [1]; 5 µM)	total intracellular glutathione (U-2 OS [1]; 10 µM)	total intracellular glutathione (U-2 OS [1]; 20 µM)	intracellular GSH:GSSG ratio (U-2 OS [2]; 5 µM)	intracellular GSH:GSSG ratio (U-2 OS [2]; 10 µM)	intracellular GSH:GSSG ratio (U-2 OS [2]; 20 µM)	AUC of culture confluence over time (U-2 OS [3]; 5 µM)	AUC of culture confluence over time (U-2 OS [3]; 10 µM)	AUC of culture confluence over time (U-2 OS [3]; 20 µM)	relative cell count (U-2 OS [4]; 0.625 µM)	relative cell count (U-2 OS [4]; 1.25 µM)	relative cell count (U-2 OS [4]; 2.5 µM)	relative cell count (U-2 OS [4]; 5 µM)	relative cell count (U-2 OS [4]; 10 µM)	relative cell count (U-2 OS [4]; 20 µM)	cell painting activity score (U-2 OS [5]; 0.625 µM)	cell painting activity score (U-2 OS [5]; 1.25 µM)	cell painting activity score (U-2 OS [5]; 2.5 µM)	cell painting activity score (U-2 OS [5]; 5 µM)	cell painting activity score (U-2 OS [5]; 10 µM)	cell painting activity score (U-2 OS [5]; 20 µM)	cell viability (U-2 OS [6]; 5 µM)	cell viability (U-2 OS [6]; 10 µM)	cell viability (U-2 OS [6]; 20 µM)	AUC of culture confluence over time (U-2 OS [3]; 0.625 µM)	AUC of culture confluence over time (U-2 OS [3]; 1.25 µM)	AUC of culture confluence over time (U-2 OS [3]; 2.5 µM)	total intracellular glutathione (U-2 OS [1]; 40 µM)	total intracellular glutathione (U-2 OS [1]; 80 µM)	intracellular GSH:GSSG ratio (U-2 OS [2]; 40 µM)	intracellular GSH:GSSG ratio (U-2 OS [2]; 80 µM)	cell viability (U-2 OS [6]; 40 µM)	cell viability (U-2 OS [6]; 80 µM)
CC(=O)OC1C(c2ccc(=O)oc2)C2(C)CCC3C(CCC4CC(O)CCC43C)C23OC13 (stereo unspecified)	13.9 ± 1.2	12.1 ± 1.1	11.5 ± 0.76	4.48	3.04	2.21	17.6	19.4	17.6	0.327	0.27	0.264	0.242	0.229	0.224	17.1	16.2	18	19	18.5	18.8	21.4 ± 1.7	21.5 ± 2.2	23.7 ± 3.1									
Nc1nc(-c2ccccc2)[n+](-c2ccccc2)s1	113 ± 5.1	117 ± 8.2	26.8 ± 7.4	25.1	18.2	2.7	39.6	44.4	43.3	1.06	1.11	1.04	1.13	1.08	0.605	7.03	3.42	2.65	3.42	3.28	9.72	106 ± 3.7	105 ± 6.1	16 ± 10									
CCCC1(c2ccccc2)NC(=O)N(CC(=O)N(C)Cc2c(F)cccc2Cl)C1=O (stereo unspecified)	102 ± 4.9	104 ± 2.5	101 ± 3.9	20.7	26.8	22.5	53.9	48.4	48.7	1.02	0.978	1.04	1.03	0.991	1.04	4.41	4.87	5.72	6.63	7.72	8.18	101 ± 3.2	102 ± 2.8	100 ± 2.9									
COC(=O)Nc1nc2ccc(C(=O)c3cccs3)cc2[nH]1	53.1 ± 6.4	50.2 ± 4.2	51.4 ± 6	3.33	2.36	2.95	20.2	18.8	24.1	0.272 ± 0.056	0.265 ± 0.032	0.243 ± 0.033	0.232 ± 0.034	0.222 ± 0.035	0.211 ± 0.036	19.6 ± 2.7	18.4 ± 2.2	21.5 ± 2.2	22.3 ± 1.8	22.7 ± 1.8	23.1 ± 1.4	54.8 ± 7	47.5 ± 5.7	52.3 ± 9.2	20.9	19.1	21.5						
CO[C@H]1C[C@@H]2CC[C@@H](C)[C@@](O)(O2)C(=O)C(=O)N2CCCC[C@H]2C(=O)O[C@H]([C@H](C)C[C@@H]2CC[C@@H](O)[C@H](OC)C2)CC(=O)[C@H](C)/C=C(\C)[C@@H](O)[C@@H](OC)C(=O)[C@H](C)C[C@H](C)/C=C/C=C/C=C/1C	90.5 ± 5.3	93.7 ± 5.7	102 ± 7	25.7	24.7	24.9	33.6	34.2	34.8	0.953	0.926	0.903	0.956	0.916	0.852	11.4	12.3	12.1	10.8	12.1	11.9	87.3 ± 5	90.6 ± 2.9	80 ± 6.5									
COc1ccc(/C(Cl)=C(\C=O)c2ccc(OC)cc2)cc1	125 ± 6.9	125 ± 4.8	111 ± 2.4	20.2	16.5	15.7	45.3	38.1	35.7	1	0.996	1.01	0.987	0.98	0.996	6.88	4.52	5.61	10.1	11.3	12	101 ± 3.7	102 ± 3.2	99.8 ± 6.2				76.7 ± 2.6	79.8 ± 4.3	7.85	9.31	77.1 ± 5	69.9 ± 4.5
O=C(NNS(=O)(=O)c1ccccc1)c1cc(-c2ccnnc2)ccc1F	98 ± 3.1	94.3 ± 3	94.6 ± 4.8	23.9	21.4	23.2	49.6	50	49.6	0.985	0.95	0.967	1.02	0.939	1.04	4.47	4.16	3.77	3.67	4.24	4.38	95.6 ± 5.4	87.5 ± 7.7	88.5 ± 3.6									
O=S1(=O)CCc2ccccc21	104 ± 1.9	109 ± 7.8	106 ± 7.5	26	25.7	22.4	51	51.8	54.2	1.03	0.988	1.02	1.05	1.02	1.02	4.91	3.74	4.94	4.01	4.61	6.81	101 ± 3.4	101 ± 5.8	102 ± 2.9									
